Results taken from patent US12239654B2, “Compounds and methods for treating neurological and cardiovascular conditions” (Astrocyte Pharmaceuticals, Inc., priority 2016, dated 2025).

Key:
[1] = target: T1, mouse A3 adenosine receptor (Mus musculus, UniProt Q61618); test: Competition binding versus [^3H]NECA at mouse A3 receptors expressed in CHO cells
T1 construct: expressed in transfected cells; whole cells for cAMP
T1 sequence (Q61618 1-319): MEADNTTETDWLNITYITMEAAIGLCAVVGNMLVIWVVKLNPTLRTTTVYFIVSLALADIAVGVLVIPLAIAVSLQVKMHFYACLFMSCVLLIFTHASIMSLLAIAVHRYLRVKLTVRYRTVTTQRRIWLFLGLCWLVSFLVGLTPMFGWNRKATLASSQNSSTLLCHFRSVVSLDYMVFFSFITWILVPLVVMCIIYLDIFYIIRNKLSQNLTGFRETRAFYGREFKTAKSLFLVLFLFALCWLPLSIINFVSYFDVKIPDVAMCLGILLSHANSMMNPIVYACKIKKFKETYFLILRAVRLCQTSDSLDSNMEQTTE

[2] = Plasma binding determination by plasma ultrafiltration, mouse; type: in vitro ADME; conditions: for fraction unbound at 60 min, 1 μM: male, CD-1, mouse, plasma
Procedure: (§1) Animals and Tissue Preparation: Plasma from male CD-1 mice was obtained from BioreclamationIVT (Westbury, NY) and stored at −80° C. until use. Male CD-1 mouse brains were obtained from BioreclamationIVT (Westbury, NY).
Plasma ultrafiltrate blank samples were prepared by thawing frozen plasma and then pre-warming plasma in a humidified 5% CO2 chamber at 37° C. for 60 minutes. Aliquots of 800 μL were transferred to Centrifree Centrifugal Filters (Ultracel regenerated cellulose (NMWL 30,000 amu) Lot R5JA31736) and centrifuged at 2900 RPM at 37° C. for 10 minutes; plasma water filtrates were collected and used in preparation of standards, blanks and QC standards.
Plasma samples were pre-warmed for 60 minutes in a humidified, 5% CO2 incubator maintained at 37° C. […] Spiked plasma samples were incubated on a rotary mixer in a humidified 5% CO2 chamber at 37° C. for a minimum of 60 minutes. After 60 minutes, three 800 μL aliquots of each sample were added to Centrifree centrifugal filters. The filters were subjected to centrifugation at 2900 rpm for 10 minutes at 37° C. Three 100 μL aliquots of residual plasma were collected along with ultrafiltrate for bioanalysis.
(§2) Plasma and brain concentrations of MRS4322 and MRS5698 in spiked plasma, brain homogenates and associated ultrafiltrates were determined by LC-MS/MS utilizing tolbutamide as an internal standard. […] The following tables outline the LC and MS/MS conditions employed (Tables 7 and 8).
(§3) For each tissue matrix, standard curves were created and LLOQ/ULOQ concentrations determined. The calibration range for the MRS4322 and MRS5698 plasma concentration standard curves was 400-1200 nM. The calibration range for MRS4322 and MRS5698 plasma ultrafiltrate standard curves was 100-1200 nM. The calibration range for MRS4322 brain homogenate and brain homogenate ultrafiltrate standard curves were 400-1200 nM and 100-1200 nM, respectively. The calibration range for MRS5698 brain homogenate and brain homogenate ultrafiltrate standard curves were 400-1200 nM and 1-500 nM, respectively.

[3] = Brain binding determination by brain homogenate ultrafiltration, mouse; type: in vitro ADME; conditions: 37° C., ultrafiltration; for fraction unbound at 60 min, 1 μM: male, CD-1, mouse, brain homogenate, pH 7.4, mouse brain homogenate
Procedure: as §1
Brains were weighed and homogenized with 1:9 phosphate-buffered saline, pH 7.4 using an Omni tissue homogenizer. Brains from four mice were homogenized, pooled and mixed to form one sample.
Pooled homogenized brains were pre-warmed for 60 minutes in a humidified, 5% CO2 incubator maintained at 37° C. […] Spiked pooled brain homogenates were placed on a Nutator mixer in a humidified, 5% CO2 incubator at 37° C. for 60 minutes. After 60 minutes, three 800 μL aliquots of each sample were added to Centrifree centrifugal filters. The filters were subjected to centrifugation at 2900 rpm for 10 minutes at 37° C. Aliquots of residual brain homogenate and ultrafiltrate were collected for bioanalysis.
as §2, §3

[4] = Pharmacokinetics of MRS4322 following intraperitoneal administration of MRS2365 to mice; type: in vivo; conditions: for Plasma Concentration Mean / Plasma Concentration by Subject / Brain Concentration Mean / Brain Concentration by Subject: analyte MRS4322, mice, MRS2365 0.24 mg/kg ip; for Plasma Concentration by Subject / Brain Concentration by Subject: subjects A-C
Procedure: Animals: Female C576BL/6J mice weighing approximately 0.02 Kg were used for this study, supplied by the University of Texas Health Sciences Center (San Antonio, TX). All studies were conducted under approved University of Texas Health Sciences Center IACUC protocols.
Drug Administration: MRS2365 was solubilized in phosphate-buffered saline and then diluted in phosphate-buffered saline to prepare dosing solution. Final dosing solution concentration of MRS2365 was 100 μM. A 100 μL volume of dosing solution was administered intraperitoneally to each mouse per 20 gram body weight; MRS2365 was administered intraperitoneally at 0.5 μmol/kg or 0.24 mg/kg. Three mice were administered MRS2365 for each sampling timepoint.
Tissue Sampling: Blood and brain samples were obtained at 0, 0.083, 0.25, 0.5, 1, 2 and 8 hours post-dose. At each timepoint, mice (3/timepoint) were euthanized in a […] chamber. Whole blood was obtained by cardiac puncture into Microtainer tubes containing heparin and immediately centrifuged for preparation of plasma; plasma was stored at −80° C. At each timepoint, whole brain samples were obtained by decapitation, rinsed in ice-cold phosphate-buffered saline and weighed. Brain samples were then immediately flash-frozen in liquid nitrogen and stored at −80° C.
The following table outlines the LC and MS/MS conditions employed:
The calibration range for the MRS4322 plasma concentration standard curve was 2.26-241 ng/mL. The calibration range for MRS4322 brain concentrations was 2.35-242 ng/mL.
For bioanalysis of brain concentrations of MRS4322, brain samples were homogenized in ice-cold phosphate-buffered saline in a 4× dilution. Aliquots of the resulting diluted brain homogenate were treated with acetonitrile and analyzed by LC-MS/MS. Because of the 4× homogenate dilution, the calibration range of the MRS4322 brain standard curve was translated to 9.40-968 ng/gm. In several samples, MRS4322 were detectable but fell below the brain LLOQ of 9.40 ng/gm but were above background; in these cases the final reported brain concentration was extrapolated based on MS peak heights.

[5] = Stability of MRS2365 incubated in phosphate-buffered saline; type: physicochemical
[6] = mouse plasma, 1 μM, 37° C., ultrafiltration, read-out: Fraction Unbound Mean
[7] = read-out: Fraction Unbound Mean

Compound: CNC(=O)[C@H]1O[C@@H](n2cnc3c(NCc4cccc(I)c4)nc(Cl)nc32)[C@H](O)[C@@H]1O [Cl-IB-MECA, 2-Chloro-N^6-(3-iodobenzyl)-adenosine-5′-N-methyluronamide, reference compound]
- difference in affinity of Cl-IB-MECA and MRS4322 at mouse A3 receptor ([1]; Cl-IB-MECA vs MRS4322): approximately 25,000 fold
- fraction unbound at 60 min, 1 μM [2, 6]: 0.002
- fraction unbound at 60 min, 1 μM [3, 7]: 0.002

Compound: CSc1nc(N)c2ncn([C@H]3[C@H](O)[C@H](O)[C@]4(COP(=O)(O)OP(=O)(O)O)C[C@H]34)c2n1 [MRS2365]
- metabolism following intraperitoneal administration to mice ([4]; MRS2365 0.5 μmol/kg ip, comparison with equimolar MRS4322): rapidly and completely metabolized to MRS4322
- stability when incubated in phosphate-buffered saline [5]: completely stable

Compound: CSc1nc(N)c2ncn([C@H]3[C@H](O)[C@H](O)[C@]4(CO)C[C@H]34)c2n1 [MRS4322]
- Plasma Concentration Mean ([4]; 0 h): BLQ
- Plasma Concentration by Subject ([4]; 0 h): BLQ
- Brain Concentration Mean ([4]; 0.083 h): BLQ
- Brain Concentration by Subject ([4]; 0.083 h): BLQ
- Brain Concentration Mean ([4]; 1 h): BLQ
- Brain Concentration by Subject ([4]; 1 h): BLQ
- Brain Concentration Mean ([4]; 2 h): BLQ
- Brain Concentration by Subject ([4]; 2 h): BLQ
- Brain Concentration Mean ([4]; 8 h): BLQ
- Plasma Concentration Mean ([4]; 8 h): BLQ
- Brain Concentration by Subject ([4]; 8 h): BLQ
- Plasma Concentration by Subject ([4]; 8 h): BLQ
- Kp ([4]; female, C57BL/6J, mouse, MRS4322 after MRS2365 ip to mice, based on mean Cmax concentrations in plasma and brain, read-out: brain/plasma ratio of total drug): ~0.1
- Ki ([1]; read-out: Ki ± SEM, Mouse A3R, [^3H]NECA, CHO cell membrane preparations, [^3H]NECA (10 nM)): 4.94 ± 0.974 µM
- fraction unbound at 60 min, 1 μM ([2]; mouse plasma, 1 μM, 37° C., ultrafiltration, read-out: % Bound Mean (converted)): 0.742
- fraction unbound at 60 min, 1 μM [2, 6]: 0.742
- fraction available to interact with the A3 receptor relative to Cl-IB-MECA ([2]; mouse models, from unbound fractions in plasma and brain): at least 1000 fold
- Fraction Unbound Mean ([2]; mouse plasma, 1 μM, 37° C., ultrafiltration): 0.74
- fraction unbound at 60 min, 1 μM ([3]; read-out: % Bound Mean (converted)): 0.13
- fraction unbound at 60 min, 1 μM [3, 7]: 0.13
- % Bound Mean ([3]; mouse brain homogenate, 1 μM): 87.0%
- Fraction Unbound Mean ([3]; mouse brain homogenate, 1 μM): 0.130
